# According to patent US12454704B2, “Efficient gene delivery tool with a wide therapeutic margin” (priority 2019, dated 2025):
# Key:
# Neuro2a cells [1] = assay: Cell confluency as a measure of cell viability, determined optically (Cytosmart); format: cell-based, murine; details: saponin 24 μg/mL applied 24 h after seeding
# Procedure: Murine neuroblastoma cells (Neuro2a cells, ATTC CCL-131™) were cultured in Dulbecco's Modified Eagle's Medium (DMEM), containing 1 g/L D-Glucose, 10% FBS and stable glutamine, at 37° C. and 5% CO2. These cells were then incubated with different saponins to test the cytotoxic effect of the saponins.
# The cell confluency as a measure of cell viability was determined optically via cell number calculating algorithms (Cytosmart). The results are depicted in FIGS. 1A to 1D.
# Buffer was used in each case as negative control.
# Neuro2a cells [2] = assay: Cell viability test by MTT assay; format: cell-based, murine; details: same concentration for all saponins (FIG. 3)
# Text: The determination of mitochondrial activity due to the formation of formazan out of MTT served as biochemical method to measure cell viability.
# Neuro2a cells [3] = assay: Cell viability test via impedance measurement (iCELLigence); format: cell-based, murine
# Procedure: The impedance (alternating current resistance) at the well bottom as real-time cell viability measure of adherent cells was determined by the iCELLigence® device. 8000 Neuro2a cells per well were seeded into two 8-well E-plates L8 and incubated for 24 h in a volume of 800 μL. For transfection toxicity studies 50 μL of reagent was added after the respective volume of culture medium was removed. Each 10 minutes the impedance/viability was measured.
# The curves indicated in FIG. 2 represent the results of the following measurements: […]
# female NMRI nu/nu mice = assay: Chronic toxicity (tolerability) study of nanoplasmids (NP) plus AG1856 in vivo; details: 90 μg per mouse
# Procedure: This study was performed to evaluate the tolerability of combined treatment of nanoplasmids (NP) and AG1856 in Naval Medical Research Institute (NMRI) nu/nu mice.
# For the study, female NMRI nu/nu mice were used. Animals were treated with NP+AG1856 at doses of 50 and 90 μg/mouse respectively and after animal recovery in a second round at same doses.
# Neuro2a cells [4] = assay: Sapofection: transfection efficiency of GFP-encoding PD nanoplexes by flow cytometry; format: cell-based, murine
# Procedure: The PD nanoplexes comprised DNA encoding for the green fluorescent protein (GFP). Therewith, the transfection efficiency could very easily be monitored by detecting the fluorescence of the cells that have been incubated with the corresponding DNA nanoparticles. The corresponding incubation period was chosen to be 48 hours in the present case.
# 20 mg of positively charged poly-lysine peptides without an integrin-receptor-targeting amino sequence were purchased from Genecust. The vector of p-EGFP-N3, coding for the green fluorescing protein (GFP), was obtained and propagated with DH5α— E. coli cells (1.645 mg/mL). StemMACS™ eGFP mRNA (20 μg) and GFP encoding minicircle DNA (Gene Bank Accession: U55761) were used as further nucleic acids. In order to conduct the transfection, nanoplexes were formulated as follows: The poly-lysine peptides (P) and the p-EGFP-N3 vector (D), were diluted in water (each 50 μL) and mixed thoroughly by fast pipetting in a ratio of 4:1. The nanoplexes were allowed to form in a 30-minute incubation step. Thereafter, the nanoplex suspension was diluted with OptiMEM to a total volume of 1 mL. The commercial transfection reagent Lipofectamin®3000 was formulated as described by the manufacturer.
# Neuro2a cells (15,000 cells/well) were seeded in a 24-well-plate with a well volume of 400 μL culture medium and incubated for 24 h. The transfection reagents were formulated as described above and admixed with saponin solution, if required. The culture medium was replaced with the transfection medium with a final amount of 500 ng DNA/RNA. After a 48 h incubation period, the transfection medium was removed, the cells were trypsinized and transferred in a polystyrene tube for flow cytometry (Cytoflex). For each measurement 10,000 cells were acquired. The transfection efficiency was determined by the analysis software Cyflogic (by comparison of the sample plots with the negative control in terms of fluorescence).
# Neuro2a cells [5] = format: cell-based, murine; details: 5 μg/mL
# Text: To evaluate an enhancement of the transfection efficiency through AG1856 an optical based cytotoxicity assay after transfection with ribosome inactivating proteins (RIPs) was chosen.
# As transgenes, 6-His-Agrostin RNA3 (Weise et al. 2020) and 6-His-Saporin 3 (Fabbrini et al. 1997) were cloned via BamHI and XbaI (Agrostin) and via SalI and NheI cleavage into pMC.CMV-MCS-SV40polyA (BioCat GmbH, Heidelberg, Germany) to produce minicircle with ZYCY10P3S2T (Kay et al. 2010). In addition to this, Saporin 3 and Gypsophillin S (Kokorin et al. 2019) were cloned into NTC9385R-BGHpA-Nanoplasmids and synthesized by Nature Technology Corporation (Lincoln, NB, USA) as previously described (Luke et al. 2011).
# For 3 wells (96-Well-Plate), 300 ng plasmid DNA were diluted in 25 μL water and mixed with 25 μL of a solution with 2,100 ng Peptide Y (K16GACYGLPHKFCG) (GeneCust, Dudelage, Luxembourg). After an incubation period of 30 min, the nanoplexes were formed automatically. […]
# The cytotoxic effect of the different constructs on the cells was measured by a CytoSMART® Omni, a camera-based system which took a photo of the bottom of each well every hour. The CytoSMART® Omni software calculated the confluence which is formed by living cells which are attached to the bottom. So, the cell growth could be monitored for 72 h. […]
# Neuro2a cells [6] = format: cell-based, murine; details: saponin alone, 4 μg/mL
# Text: FIGS. 6A and 6B show cell viability tests upon AG1856-mediated delivery of GFP-minicircle-DNA- or RIP-minicircle-DNA-bearing nanoplexes.
# Saporin and dianthin are cytotoxic proteins. If the transfection is successful, the transfected cells will die.
# The curves depicted in FIG. 6A represent the results of the following measurements: […]
SMILES,toxic effect (cell confluency as a measure of cell viability) (Neuro2a cells [1]),toxicity-mediated drop of viability (MTT) (Neuro2a cells [2]),"toxicity (impedance, real-time cell viability) (Neuro2a cells [3]; stepwise increase of AG1856 concentration, 2 to 24 μg/mL)",tolerance compared to other saponins (female NMRI nu/nu mice),"transfection efficiency (Neuro2a cells [4]; GFP-plasmid nanoplexes, saponin increased from working concentration to 24 μg/mL (FIG. 5))","transfection efficiency (Neuro2a cells [4]; PD nanoplexes (GFP DNA), saponin 2 μg/mL, 48 h incubation, versus Lipofectamin3000)","transfection efficiency (Neuro2a cells [4]; PD nanoplexes (GFP DNA), saponin 4 μg/mL or higher, 48 h incubation, versus Lipofectamin3000)","fluorescing cells (flow cytometric analysis) (Neuro2a cells [4]; transfection with GFP minicircle DNA performed with AG1856, n>3 (FIG. 6B))",proliferation worse than the negative group (normalized confluence) (Neuro2a cells [5]; AG1856 only) [%],toxicity (cell viability) (Neuro2a cells [6]),"toxicity (impedance, real-time cell viability) (Neuro2a cells [3]; positive control, 4 μg/mL)",growth of the cells (normalized confluence) (Neuro2a cells [5]; positive control)
CC(=O)OCC1OC(OC2C(O)C(OC3C(OC(=O)C45CCC(C)(C)CC4C4=CCC6C7(C)CCC(OC8OC(C(=O)O)C(O)C(OC9OCC(O)C(O)C9O)C8OC8OC(CO)C(O)C(O)C8O)C(C)(C=O)C7CCC6(C)C4(C)CC5O)OC(C)C(OC4OC(C)C(OC(C)=O)C(OC(C)=O)C4O)C3O)OC(C)C2OC2OCC(O)C(O)C2O)C(O)C(O)C1OC(C)=O (stereo not drawn) [AG1856],No distinct toxic effect,could not be observed,no significant toxicity increase,superior tolerance,even increased efficiency,comparable to that of the gold standard Lipofectamin,even higher than that of Lipofectamin,Four cells out of five,12,no toxicity,,
"COc1ccc(C[C@H](N)C(=O)N[C@H]2[C@@H](O)[C@H](n3cnc4c(N(C)C)ncnc43)O[C@@H]2CO)cc1 [puromycin, reference compound]",,,,,,,,,,,toxic,inhibit the growth of the cells instantly
